Reference: patent publication US9249151B2, “Bis-amido pyridines” (Boehringer Ingelheim International GmbH, priority 2013, dated 2016)

Target: BIR3 domain of human cIAP1 (amino acids 256 to 363; cIAP1 BIR3) (Homo sapiens (Human), UniProt Q13490)
Assay: cIAP1 BIR3 binding assay (DELFIA)
Details: BIR3 domain 10 nM, SMAC peptide 10 nM; values represent the (S)-isomers; * = racemic compound; read-out: cIAP1 BIR-3 IC50
Protocol: XIAP BIR3 and cIAP1 BIR3 Binding Assays (DELFIA)
Peptide […]-Lys(Biotin), representing the N-terminus of mature human SMAC (SMAC peptide), was used as interaction partner in the protein-peptide interaction assay.
BIR3 domains (10 nM) were incubated with SMAC peptide (10 nM) in assay buffer (50 mM Tris, 120 mM NaCl, 0.1% BSA, 1 mM DTT, 0.05% TritonX100) for one hour at room temperature in the presence of inhibitory compounds. The assay mixture was transferred to a streptavidin coated plate and incubated for one hour at room temperature to allow binding of the biotinylated peptide and associated BIR3 domains to the plate. After several washing steps Eu labeled anti-GST antibody (e.g. Perkin Elmer DELFIA Eu-N1-antiGST AD0250) was added to detect BIR3 domain-SMAC peptide interactions m according to Perkin Elmer's instructions. […] Time resolved Europium fluoresecence was measured in a Wallac Victor using Standard assay settings.
DELFIA assay results were plotted against compound concentrations and Software GraphPad Prizm was used to calculate half maximal inhibitory concentrations (IC50 values).

Chain of BIR3 domain of human cIAP1 (amino acids 256 to 363; cIAP1 BIR3) (Q13490 256-363): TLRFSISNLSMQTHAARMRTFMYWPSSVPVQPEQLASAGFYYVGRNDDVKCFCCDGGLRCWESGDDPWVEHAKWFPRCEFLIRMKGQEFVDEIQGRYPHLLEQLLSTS

IC50: 0.055 µM
SMILES: CNC(C)C(=O)Nc1cc(-c2nc(OC)nc3c(C)nn(C)c23)cc(NC(=O)c2ccc(Cl)cn2)n1 (stereo not shown) [Example 63, 5-chloro-N-(4-{5-methoxy-1,3-dimethyl-1H-pyrazolo[4,3-d]pyrimidin-7-yl}-6-[2-(methylamino)-propanamido]pyridin-2-yl)pyridine-2-carboxamide]
